# “Also recorded” adds a separate entry of the source. Where no end group is shown, it is not given here.
# T1: 5HT1A (Homo sapiens, UniProt P08908)
# T1 construct: purchased Perkin Elmer RBHS1AM400UA; host or cells: HEK293-EBNA
# T1 sequence (P08908 1-422): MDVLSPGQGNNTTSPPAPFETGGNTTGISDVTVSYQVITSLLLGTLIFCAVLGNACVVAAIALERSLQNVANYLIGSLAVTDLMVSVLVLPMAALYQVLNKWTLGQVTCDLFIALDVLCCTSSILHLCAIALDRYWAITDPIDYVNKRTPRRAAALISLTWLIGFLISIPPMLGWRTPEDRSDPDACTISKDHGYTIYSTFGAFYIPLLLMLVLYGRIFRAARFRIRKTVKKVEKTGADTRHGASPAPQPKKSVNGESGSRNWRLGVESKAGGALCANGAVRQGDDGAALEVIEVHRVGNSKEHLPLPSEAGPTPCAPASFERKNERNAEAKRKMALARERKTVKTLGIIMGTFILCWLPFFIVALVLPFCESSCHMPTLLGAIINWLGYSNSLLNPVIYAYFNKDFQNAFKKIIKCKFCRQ
# B1: DSV36S: anti-Galphai antibody generated by Cisbio Bioassays (antibody, V domains shown)
# VH: EVQLQQSGAELVRPGALVKLSCKASGFNIKDYYMHWVKQRPEQGLEWIGWIDPENGNTIYDPKFQGKASITADTSSNTAYLQLSSLTSEDTAVYYCTRGGGYYSDWYFDVWGAGTTVTVSS
# VL: QIVLTQSPAIMSASPGEKVTMTCSASSSVSYMHWYQQKSGTSPKRWIYDTSKLASGVPARFSGSGSGTSYSLTISSMEAEDAATYYCQQWSSNPPITFGAGTKLELK
# Columns and labels:
# [1] = molecular target: T2, Delta Opioid GPCR (Homo sapiens, UniProt P41143); experiment: Activation test according to format 2A (TR-FRET, empty Galpha vs GTP/GTPγS-bound full form), HEK293 membranes; format: biochemical
# T2 construct: purchased Perkin Elmer 6110549400UA (HEK293)
# [2] = molecular target: T2, Delta Opioid GPCR; experiment: Activation test according to format 2B (TR-FRET, full Galpha bound to GTPγS vs empty form), membranes expressing Delta Opioid GPCR and Galphai protein; format: biochemical; details: for TR-FRET signal (HTRF ratio), inhibition of agonist activation by antagonist: SNC162 fixed 10 nM
# Procedure: All reagents were diluted in TrisHCl 50 mM pH 7.4, MgCl2 10 mM, NaCl 10 mM, BSA 0.1% buffer. The membranes were prepared 4× to distribute 1 μg/well (except for other specifications). The GDP, GTP or GTPγS nucleotides and test compounds (agonists or antagonists) were pre-mixed and prepared 4× to obtain the final concentrations in the wells mentioned in the graphs. All anti-Galphai reagents used for detection were prepared 4× to target the following final concentrations in the following wells: sdAbs-d2 (50 nM); antibody SC13533-d2 (0.1 nM); antibody SC13533-Lumi4Tb (0.25 nM); antibody DSV36S-d2 (0.1 nM); antibody DSV36S-Lumi4Tb (0.25 nM); antibody DSV3S-d2 (10 nM); antibody DSV39S-d2 (10 nM); antibody DSV26S-Lumi4Tb (0.25 nM); peptide KB1753-Biotin (50 nM) in combination with streptavidin-XL665 (SA-XL) (25 nM) (pre-incubated 30 minutes at room temperature before distribution in plates). • Distribution of reagents in the 384-well plates: • Membranes expressing GPCR and G protein: 5 μL • Nucleotides (GDP or GTP or GTPγS) ±Test compounds (agonists and/or antagonists): 5 μL • Anti-Galphai-acceptor ligand (d2 or XL665): 5 μL • Anti-Galphai-donor ligand (Lumi4Tb): 5 μL
# (§1) The plates were incubated at 21° C. for 3 h or 20 h and then the HTRF signal was measured on the PHERAstar reader (BMG Labtech) with the following configuration: • Module: HTRF (Excitation 337nm, Emission 665nm and 620nm) • Excitation: laser, 40 flashes • Reading window: delays: 60 μs—Integration: 400 μs
# After activation of GPCR and Galpha protein by a GPCR agonist, the decrease in the proportion of the full Galpha protein form bound to GTP or bound to GTPγS (due to an increase in the proportion of the empty Galpha protein form) is specifically detected using two ligands labeled with RET partners. Activation of GPCR results in a decrease in the RET signal.
# In a second step, the ability of a GPCR agonist to modulate the proportion of Galpha protein in empty form was tested with the same membranes and detection ligand pairs. HEK293 cell membranes expressing Delta Opioid GPCR and Galphai protein were incubated with GTPγS (10 nM) and GPCR agonist (SNC162) in increasing concentration. […] In a second condition, activation with a fixed concentration of GPCR agonist SNC162 (10 nM) was inhibited by an increasing concentration of GPCR antagonist (Naltrindole).
# On the other hand, membranes (10 μg/wells) of HEK293 or CHO-K1 cells expressing the Delta Opioid GPCR and Galphai protein were incubated with GTPγS (100 nM) alone or in combination with a saturated fixed concentration (1 μM) of the receptor agonist (SNC162).
# In a first condition, HEK293 cell membranes expressing Delta Opioid GPCR and Galphai protein were incubated with GTPγS (10 nM) and a GPCR agonist (SNC162) in increasing concentration.
# [3] = molecular target: T2, Delta Opioid GPCR; experiment: Activation test according to format 1A (TR-FRET, empty Galpha vs GDP-bound full form), HEK293 membranes; format: biochemical; details: GDP 10 μM
# Procedure: (§2) All reagents were diluted in TrisHCl 50 mM pH 7.4, MgCl2 10 mM, NaCl 10 mM, BSA 0.1% buffer. The membranes were prepared 4× to distribute 1 μg/well (except for other specifications). The GDP, GTP or GTPγS nucleotides and test compounds (agonists or antagonists) were pre-mixed and prepared 4× to obtain the final concentrations in the wells mentioned in the graphs. […]
# as §1, with “400 μs […]” for “400 μs”
# [4] = molecular target: T1, 5HT1A; experiment: Activation test format 2B on 5HT1A membranes (Example 7); format: biochemical; details: HEK293 membranes 10 μg/well, GTPγS 100 nM, agonist 1 μM (FIG. 10)
# Procedure: as §2, §1
# [5] = tested on: Galpha protein; experiment: Binding specificity of detection ligands for the forms of the Galpha protein
# Procedure: In order to evaluate the selectivity of antibodies between the different forms of the Galphai1 protein (GDP-bound full form vs. GTPgS-bound full form vs. empty form), the test was performed in parallel on TST-Galphai1 protein conditions pre-incubated in the buffer containing either GDP at 1 μM, GTPgS at 1 μM or no nucleotide. The best hybridomas were then cloned with a limit dilution step to obtain hybridoma clones.
# • the anti-Galphai antibody SC13533 was purchased from Santa Cruz Biotechnology (catalogue number SC13533). […] The antibodies were labeled with compatible fluorescent probes for TR-FRET detection (red—d2 acceptor or Lumi4Tb donor).
# T2 sequence (P41143 whole entry): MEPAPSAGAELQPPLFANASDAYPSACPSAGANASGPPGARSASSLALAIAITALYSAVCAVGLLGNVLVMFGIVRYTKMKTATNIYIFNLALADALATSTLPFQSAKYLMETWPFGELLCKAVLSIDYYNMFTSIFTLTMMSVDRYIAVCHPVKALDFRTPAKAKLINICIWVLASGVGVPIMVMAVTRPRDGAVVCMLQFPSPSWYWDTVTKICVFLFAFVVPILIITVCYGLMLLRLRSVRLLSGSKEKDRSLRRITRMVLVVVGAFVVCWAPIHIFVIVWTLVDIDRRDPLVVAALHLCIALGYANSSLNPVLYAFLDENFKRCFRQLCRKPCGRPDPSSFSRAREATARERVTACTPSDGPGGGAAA
molecule,measurement,setting,value
C=CCN1C[C@H](C)N([C@@H](c2ccccc2)c2ccc(C(=O)N(CC)CC)cc2)C[C@H]1C [SNC162],TR-FRET signal (HTRF ratio) generated by stimulation with the agonist,"[1]; Example 8, GTP 50, 1000 or 20000 nM, agonist 1 μM, membranes 1 μg/well, amplitude lower than with GTPγS (FIG. 11)",increase in the TR-FRET signal
same,TR-FRET signal (HTRF ratio) generated by stimulation with the agonist,"[1]; Example 8, GTPγS 50, 1000 or 20000 nM, agonist 1 μM, membranes 1 μg/well (FIG. 11)",increase in the TR-FRET signal
same,TR-FRET signal (HTRF ratio) generated by stimulation with the agonist,"[1]; GTPγS 10 nM, agonist in increasing concentration, DSV39S-d2 + DSV26S-Lumi4Tb (FIG. 9B)",increase in the TR-FRET signal
same,TR-FRET signal (HTRF ratio) generated by stimulation with the agonist,"[2]; Example 7, CHO-K1 membranes 10 μg/well, GTPγS 100 nM, agonist 1 μM (FIG. 10)",decrease in the TR-FRET signal
same,TR-FRET signal (HTRF ratio) generated by stimulation with the receptor agonist,"[2]; Example 7, HEK293 membranes 10 μg/well, GTPγS 100 nM, agonist 1 μM, KB1753-biotin/SA-XL + SC13533-Lumi4Tb (FIG. 10)",decrease in the TR-FRET signal
same,TR-FRET signal (HTRF ratio) generated by stimulation with the agonist,"[2]; Example 9, format 2B, GTPγS 10 nM, agonist in increasing concentration, DSV36S-Lumi4Tb/SC13533-d2 (FIG. 12B)",decrease in the TR-FRET signal
same,TR-FRET signal (HTRF ratio) generated by stimulation with the agonist,"[2]; Example 10, format 2B, GTPγS 10 nM, agonist in increasing concentration, sdAb-d2 ligand pairs (FIGS. 13B-19B)",decrease in the TR-FRET signal
same,TR-FRET signal (HTRF ratio) generated by stimulation with the agonist,"[2]; format 2B, HEK293 membranes, GTPγS 10 nM, agonist in increasing concentration, detection ligand pairs of Examples 1-4 (FIGS. 4B-7B)",decrease in the TR-FRET signal
same,TR-FRET signal (HTRF ratio) generated by stimulation with the agonist,"[3]; agonist in increasing concentration, DSV39S-d2 + DSV26S-Lumi4Tb (FIG. 8B)",increase in the TR-FRET signal
Oc1ccc2c3c1O[C@H]1c4[nH]c5ccccc5c4C[C@@]4(O)[C@@H](C2)N(CC2CC2)CC[C@]314 [Naltrindole],"TR-FRET signal (HTRF ratio), inhibition of agonist activation by antagonist","[1]; GTPγS 10 nM, SNC162 fixed 10 nM, antagonist in increasing concentration (FIG. 9B)",decrease in the TR-FRET signal
same,"TR-FRET signal (HTRF ratio), inhibition of agonist activation by antagonist","[2]; Example 9, format 2B, GTPγS 10 nM, antagonist in increasing concentration (FIG. 12B)",increase in the TR-FRET signal
same,"TR-FRET signal (HTRF ratio), inhibition of agonist activation by antagonist","[2]; Example 10, format 2B, GTPγS 10 nM, antagonist in increasing concentration, FIGS. 13B-18B",increase in the TR-FRET signal
same,"TR-FRET signal (HTRF ratio), inhibition of agonist activation by antagonist","[2]; format 2B, HEK293 membranes, GTPγS 10 nM, antagonist in increasing concentration, Examples 1-3",increase in the TR-FRET signal
same,"TR-FRET signal (HTRF ratio), inhibition of agonist activation by antagonist","[3]; SNC162 fixed 10 nM, antagonist in increasing concentration (FIG. 8B)",decrease in the TR-FRET signal
NCCc1c[nH]c2ccc(O)cc12 [serotonin],TR-FRET signal (HTRF ratio) generated by stimulation with the receptor agonist,[4],decrease in the TR-FRET signal
"Ser-Ser-Arg-Gly-Tyr-Tyr-His-Gly-Ile-Trp-Val-Gly-Glu-Glu-Gly-Arg-Leu-Ser-Arg (SSRGYYHGIWVGEEGRLSR; also: biotinylated, place not given here) [KB1753, biotinylated form generated by Cisbio Bioassays]","Form of the Galpha protein specifically bound (empty, GDP-bound, GTP/non-hydrolyzable GTP-bound)",[5],specifically binds the form of the Galpha GTP or GTP protein that is non-hydrolyzable or slowly hydrolyzable relative to the forms of the empty Galpha protein and GDP; also recorded: specifically recognizes the full Galpha protein bound to GTP
B1,"Form of the Galpha protein specifically bound (empty, GDP-bound, GTP/non-hydrolyzable GTP-bound)",[5],specifically binds the form of the Galpha GTP or GTP protein that is non-hydrolyzable or slowly hydrolyzable relative to the forms of the empty Galpha protein and GDP

# — patent US20230135945A1, “Method for Measuring Modulation in the Activity of a G Protein-Coupled Receptor” (CISBIO BIOASSAYS, priority 2017, published 2023)
